Source: ChEMBL document CHEMBL4130462, “Natural isoflavone biochanin A as a template for the design of new and potent 3-phenylquinolone efflux inhibitors against Mycobacterium avium” (Eur J Med Chem, 2017)
In brackets after ≈: the same amount, converted by molar mass.

Columns and labels:
[1] = tested on: Mycobacterium avium; details: in vivo, 72 h
Description: Antimycobacterial activity against Mycobacterium avium 104 mc'2 4 assessed as reduction in bacterial viability incubated for 3 days by MTT assay

[2] = tested on: Mycobacterium avium; details: isolate MAV3
[3] = tested on: Mycobacterium avium; details: 104
Description: Inhibition of multidrug resistance efflux pump in Mycobacterium avium 104 assessed as potentiation of clarithromycin -induced antibacterial activity by measuring clarithromycin MIC at 1/4 MIC incubated for 3 days by MTT assay

[4] = tested on: Mycobacterium avium; details: 104 mc'2 4
[5] = tested on: Mycobacterium avium; details: 104; remark: listed apart in the source
[6] = tested on: Mycobacterium avium; details: 104 mc'2 3
[7] = tested on: Mycobacterium avium; details: 104 mc'2 4; remark: listed apart in the source
[8] = tested on: Mycobacterium avium; details: isolate MAV3; remark: listed apart in the source
[9] = tested on: Mycobacterium avium; details: isolate MAV3; remark: listed apart in the source
[10] = tested on: Mycobacterium avium; details: isolate MAV1
[11] = tested on: Mycobacterium avium subsp. avium ATCC 25291
[12] = tested on: Mycobacterium avium; details: isolate MAV4
Description: Inhibition of multidrug resistance efflux pump in Mycobacterium avium isolate MAV4 assessed as potentiation of clarithromycin -induced antibacterial activity by measuring clarithromycin MIC at 1/2 MIC incubated for 3 days by MTT assay

[13] = tested on: Mycobacterium avium; details: isolate MAV1; remark: listed apart in the source
Description: Inhibition of multidrug resistance efflux pump in Mycobacterium avium isolate MAV1 assessed as potentiation of ofloxacin-induced antibacterial activity by measuring ofloxacin MIC at 1/4 MIC incubated for 3 days by MTT assay (Rvb = 4 ug/ml)

[14] = tested on: Mycobacterium avium subsp. avium ATCC 25291; remark: listed apart in the source
[15] = tested on: Mycobacterium avium; details: 104 mc'2 4; remark: listed apart in the source
[16] = tested on: Mycobacterium avium; details: isolate MAV4; remark: listed apart in the source
Description: Inhibition of multidrug resistance efflux pump in Mycobacterium avium isolate MAV4 assessed as potentiation of clarithromycin -induced antibacterial activity by measuring clarithromycin MIC at 1/4 MIC incubated for 3 days by MTT assay

[17] = Safety index, ratio of CC50 for test compound to CC50 for chlorpromazine for cytotoxicity in human monocyte-derived macrophages; assay type: cell-based, Macrophage cell line
[18] = tested on: Mycobacterium avium; details: isolate MAV2
[19] = tested on: Mycobacterium avium; details: isolate MAV3; remark: listed apart in the source
[20] = tested on: Mycobacterium avium; details: isolate MAV2; remark: listed apart in the source
[21] = tested on: Mycobacterium avium subsp. avium ATCC 25291; remark: listed apart in the source
[22] = tested on: Mycobacterium avium subsp. avium ATCC 25291; remark: listed apart in the source
[23] = tested on: Mycobacterium avium; details: 104 mc'2 3; remark: listed apart in the source
[24] = tested on: Mycobacterium avium; details: isolate MAV4; remark: listed apart in the source
[25] = tested on: Mycobacterium avium; details: isolate MAV1; remark: listed apart in the source
[26] = Cytotoxicity in human monocyte-derived macrophages assessed as reduction in cell viability incubated for 3 days by alamar blue dye based assay; design: species or system Macrophage cell line
[27] = tested on: Mycobacterium avium; details: isolate MAV3; remark: listed apart in the source
[28] = tested on: Mycobacterium avium; details: isolate MAV4; remark: listed apart in the source
[29] = tested on: Mycobacterium avium; details: 104; remark: listed apart in the source
[30] = tested on: Mycobacterium avium subsp. avium ATCC 25291; remark: listed apart in the source
Description: Inhibition of multidrug resistance efflux pump in Mycobacterium avium ATCC 25291 assessed as potentiation of clarithromycin -induced antibacterial activity by measuring clarithromycin MIC at 1/2 MIC incubated for 3 days by MTT assay

[31] = tested on: Mycobacterium avium subsp. avium ATCC 25291; remark: listed apart in the source
[32] = tested on: Mycobacterium avium; details: 104 mc'2 4; remark: listed apart in the source
[33] = tested on: Mycobacterium avium; details: 104 mc'2 4; remark: listed apart in the source
[34] = tested on: Mycobacterium avium; details: in vivo, 72 h; remark: listed apart in the source
Description: Antimycobacterial activity against Mycobacterium avium 104 mc'2 3 assessed as reduction in bacterial viability incubated for 3 days by MTT assay

[35] = tested on: Mycobacterium avium; details: isolate MAV3; remark: listed apart in the source
[36] = tested on: Mycobacterium avium; details: isolate MAV2; remark: listed apart in the source
Description: Inhibition of multidrug resistance efflux pump in Mycobacterium avium isolate MAV2 assessed as potentiation of clarithromycin -induced antibacterial activity by measuring clarithromycin MIC at 1/4 MIC incubated for 3 days by MTT assay (Rvb = >1024 ug/ml)

[37] = tested on: Mycobacterium avium subsp. avium ATCC 25291; remark: listed apart in the source
Description: Inhibition of multidrug resistance efflux pump in Mycobacterium avium ATCC 25291 assessed as potentiation of clarithromycin -induced antibacterial activity by measuring clarithromycin MIC at 1/4 MIC incubated for 3 days by MTT assay

[38] = tested on: Mycobacterium avium; details: 104 mc'2 3; remark: listed apart in the source
[39] = tested on: Mycobacterium avium; details: 104 mc'2 4; remark: listed apart in the source
[40] = tested on: Mycobacterium avium; assay: Antimycobacterial activity against Mycobacterium avium isolate MAV3 assessed as reduction in bacterial viability incubated for 3 days by MTT assay; assay type: organism-based; details: 72 h
[41] = tested on: Mycobacterium avium; assay: Antimycobacterial activity against Mycobacterium avium ATCC 25291 assessed as reduction in bacterial viability incubated for 3 days by MTT assay; assay type: organism-based; details: mycobacterium avium subsp. avium atcc 25291, 72 h
[42] = tested on: Mycobacterium avium; details: 104 mc'2 3; remark: listed apart in the source
[43] = tested on: Mycobacterium avium; details: 104 mc'2 4; remark: listed apart in the source
[44] = Safety index, ratio of MTC for test compound to MTC for chlorpromazine for cytotoxicity in human monocyte-derived macrophages; assay type: cell-based, Macrophage cell line
[45] = tested on: Mycobacterium avium; details: isolate MAV4; remark: listed apart in the source
[46] = tested on: Mycobacterium avium subsp. avium ATCC 25291; remark: listed apart in the source
[47] = tested on: Mycobacterium avium; details: isolate MAV2; remark: listed apart in the source
Description: Inhibition of multidrug resistance efflux pump in Mycobacterium avium isolate MAV2 assessed as potentiation of ofloxacin-induced antibacterial activity by measuring ofloxacin MIC at 1/4 MIC incubated for 3 days by MTT assay

[48] = tested on: Mycobacterium avium; details: 104 mc'2 3; remark: listed apart in the source
[49] = tested on: Mycobacterium avium; details: 104 mc'2 3; remark: listed apart in the source
[50] = tested on: Mycobacterium avium; details: 72 h
Description: Antimycobacterial activity against Mycobacterium avium 104 assessed as reduction in bacterial viability incubated for 3 days by MTT assay

[51] = tested on: Mycobacterium avium; details: isolate MAV1; remark: listed apart in the source
[52] = tested on: Mycobacterium avium; details: 104; remark: listed apart in the source
[53] = tested on: Mycobacterium avium; details: isolate MAV2; remark: listed apart in the source
Description: Inhibition of multidrug resistance efflux pump in Mycobacterium avium isolate MAV2 assessed as potentiation of clarithromycin -induced antibacterial activity by measuring clarithromycin MIC at 1/2 MIC incubated for 3 days by MTT assay (Rvb = >1024 ug/ml)

[54] = tested on: Mycobacterium avium; details: 104; remark: listed apart in the source
Description: Inhibition of multidrug resistance efflux pump in Mycobacterium avium 104 assessed as potentiation of clarithromycin -induced antibacterial activity by measuring clarithromycin MIC at 1/2 MIC incubated for 3 days by MTT assay

[55] = tested on: Mycobacterium avium; details: 104 mc'2 4; remark: listed apart in the source
[56] = tested on: Mycobacterium avium; details: isolate MAV2; remark: listed apart in the source
[57] = tested on: Mycobacterium avium; details: isolate MAV1; remark: listed apart in the source
[58] = tested on: Mycobacterium avium; details: 104; remark: listed apart in the source
[59] = tested on: Mycobacterium avium; details: 104 mc'2 4; remark: listed apart in the source
[60] = tested on: Mycobacterium avium; details: isolate MAV1; remark: listed apart in the source
[61] = tested on: Mycobacterium avium; details: isolate MAV3; remark: listed apart in the source
[62] = tested on: Mycobacterium avium; details: isolate MAV1; remark: listed apart in the source
[63] = tested on: Mycobacterium avium; details: isolate MAV4; remark: listed apart in the source
[64] = tested on: Mycobacterium avium; details: isolate MAV3; remark: listed apart in the source
[65] = tested on: Mycobacterium avium; details: 104; remark: listed apart in the source
[66] = tested on: Mycobacterium avium; details: 104; remark: listed apart in the source
[67] = tested on: Mycobacterium avium; details: isolate MAV2; remark: listed apart in the source
[68] = tested on: Mycobacterium avium; details: isolate MAV3; remark: listed apart in the source

CCCOc1ccc(-c2cn(CCN3CCCCCC3)c3ccccc3c2=O)cc1
MIC [1]: 256 µg/mL (≈ 633 µM)
MIC [2]: 0.5 µg/mL (≈ 1.24 µM)
MIC [3]: 1 µg/mL (≈ 2.47 µM)
MIC [4]: < 4 µg/mL
MIC [5]: < 0.195 µg/mL
MIC [6]: < 0.125 µg/mL
MIC [7]: < 0.125 µg/mL
MIC [8]: 32 µg/mL (≈ 79.1 µM)
MIC [9]: 4 µg/mL (≈ 9.89 µM)
MIC [10]: < 4 µg/mL
MIC [11]: < 1 µg/mL
MIC [12]: < 0.0625 µg/mL
MIC [13]: 2 µg/mL (≈ 4.94 µM)
MIC [14]: 8 µg/mL (≈ 19.8 µM)
MIC [15]: < 0.195 µg/mL
MIC [16]: 4 µg/mL (≈ 9.89 µM)
selectivity ratio [17]: 2 to 4
MIC [18]: 2 µg/mL (≈ 4.94 µM)
MIC [19]: 16 µg/mL (≈ 39.5 µM)
MIC [20]: < 4 µg/mL
MIC [21]: < 0.25 µg/mL
MIC [22]: 8 µg/mL (≈ 19.8 µM)
MIC [23]: < 4 µg/mL
MIC [24]: < 0.25 µg/mL
MIC [25]: < 4 µg/mL
CC50 at 72 h ([26]; human monocyte-derived macrophages): 50 µM
MTC ([26]; macrophage cell line, 72 h): 20 µM
MIC [27]: 0.78 µg/mL (≈ 1.93 µM)
MIC [28]: 8 µg/mL (≈ 19.8 µM)
MIC [29]: 4 µg/mL (≈ 9.89 µM)
MIC [30]: < 0.0625 µg/mL
MIC [31]: 16 µg/mL (≈ 39.5 µM)
MIC [32]: 128 µg/mL (≈ 316 µM)
MIC [33]: < 4 µg/mL
MIC [34]: 256 µg/mL (≈ 633 µM)
MIC [35]: 1 µg/mL (≈ 2.47 µM)
MIC [36]: 256 µg/mL (≈ 633 µM)
MIC [37]: 8 µg/mL (≈ 19.8 µM)
MIC [38]: < 64 µg/mL
MIC [39]: < 0.125 µg/mL
MIC [40]: 128 µg/mL (≈ 316 µM)
MIC [41]: 256 µg/mL (≈ 633 µM)
MIC [42]: < 4 µg/mL
MIC [43]: 0.39 µg/mL (≈ 0.964 µM)
selectivity ratio [44]: 2 to 4
MIC [45]: 8 µg/mL (≈ 19.8 µM)
MIC [46]: < 0.5 µg/mL
MIC [47]: 2 µg/mL (≈ 4.94 µM)
MIC [48]: < 0.195 µg/mL
MIC [49]: 2 µg/mL (≈ 4.94 µM)
MIC [50]: 256 µg/mL (≈ 633 µM)
MIC [51]: < 0.125 µg/mL
MIC [52]: < 4 µg/mL
MIC [53]: < 4 µg/mL
MIC [54]: < 0.125 µg/mL
MIC [55]: 2 µg/mL (≈ 4.94 µM)
MIC [56]: 3.12 µg/mL (≈ 7.72 µM)
MIC [57]: < 0.125 µg/mL
MIC [58]: < 4 µg/mL
MIC [59]: 32 µg/mL (≈ 79.1 µM)
MIC [60]: < 0.195 µg/mL
MIC [61]: 32 µg/mL (≈ 79.1 µM)
MIC [62]: 1.56 µg/mL (≈ 3.86 µM)
MIC [63]: < 4 µg/mL
MIC [64]: 2 µg/mL (≈ 4.94 µM)
MIC [65]: 1.56 µg/mL (≈ 3.86 µM)
MIC [66]: 4 µg/mL (≈ 9.89 µM)
MIC [67]: 256 µg/mL (≈ 633 µM)
MIC [68]: < 4 µg/mL
